In US12441733B2, “Substituted 2,4-dioxotetrahydropyrimidines as intermediates in the synthesis of bruton's tyrosine kinase inhibitors” (Novartis AG, priority 2018, dated 2025):
Read-outs that look alike come from different tables or passages of the source.

How the values were obtained:
Type in all cases: cell-based
TMD8 cells = experiment: Resazurin cell viability (proliferation) assay in TMD8 DLBCL cells; details: TMD8 cells (BTK dependent), 72 h, 50% growth inhibition vs vehicle, read-out: TMD8 Prol GI50
Procedure, shortened: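 TMD8 cells were seeded at 1×10^4 per well and treated 3 h later with compound, in an 8-point 1:4 dilution series starting at 1 μM, or DMSO, for 72 h at 37° C. Resazurin was added at 13 μg/ml final for the last 2 h, and fluorescence was read at ex 530/em 600 nm. GI50 versus vehicle was derived by curve fitting from triplicates.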

BTK-GFP = target: T1, BTK-GFP (Homo sapiens, UniProt Q06187+Q96SW2); experiment: BTK-GFP protein abundance flow cytometry assay in HEK293A cells; details: HEK293A BTK-GFP-iresRFP cells, 24 h; for DC50: GFP signal by flow cytometry, concentration at which 50% maximal degradation was observed; for BTK deg Amax: % protein remaining at the concentration at which maximum degradation is seen
T1 construct: expressed in transfected cells; host or cells: HEK293A (Invitrogen R70507), lentiviral transduction with pLenti6-BTK-GFP-Ires-RFP, blasticidin selection
T1 sequence (Q06187 whole entry): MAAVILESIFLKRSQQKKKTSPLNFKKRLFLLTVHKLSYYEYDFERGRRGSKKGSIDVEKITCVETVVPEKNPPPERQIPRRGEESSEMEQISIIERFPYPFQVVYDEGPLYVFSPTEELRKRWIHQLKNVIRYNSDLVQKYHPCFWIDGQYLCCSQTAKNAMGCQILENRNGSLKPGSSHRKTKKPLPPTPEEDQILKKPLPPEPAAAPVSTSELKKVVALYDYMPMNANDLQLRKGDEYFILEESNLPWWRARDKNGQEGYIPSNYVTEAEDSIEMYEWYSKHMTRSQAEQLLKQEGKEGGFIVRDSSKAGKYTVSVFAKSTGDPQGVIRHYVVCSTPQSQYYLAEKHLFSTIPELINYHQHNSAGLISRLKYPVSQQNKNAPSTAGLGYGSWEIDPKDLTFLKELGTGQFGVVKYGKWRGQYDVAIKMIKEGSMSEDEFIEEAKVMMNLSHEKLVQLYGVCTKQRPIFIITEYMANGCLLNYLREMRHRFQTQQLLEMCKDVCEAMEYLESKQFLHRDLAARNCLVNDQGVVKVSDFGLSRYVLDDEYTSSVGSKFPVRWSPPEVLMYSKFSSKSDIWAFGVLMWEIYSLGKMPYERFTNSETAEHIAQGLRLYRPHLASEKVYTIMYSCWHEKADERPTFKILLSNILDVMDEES
T1 sequence (Q96SW2 whole entry): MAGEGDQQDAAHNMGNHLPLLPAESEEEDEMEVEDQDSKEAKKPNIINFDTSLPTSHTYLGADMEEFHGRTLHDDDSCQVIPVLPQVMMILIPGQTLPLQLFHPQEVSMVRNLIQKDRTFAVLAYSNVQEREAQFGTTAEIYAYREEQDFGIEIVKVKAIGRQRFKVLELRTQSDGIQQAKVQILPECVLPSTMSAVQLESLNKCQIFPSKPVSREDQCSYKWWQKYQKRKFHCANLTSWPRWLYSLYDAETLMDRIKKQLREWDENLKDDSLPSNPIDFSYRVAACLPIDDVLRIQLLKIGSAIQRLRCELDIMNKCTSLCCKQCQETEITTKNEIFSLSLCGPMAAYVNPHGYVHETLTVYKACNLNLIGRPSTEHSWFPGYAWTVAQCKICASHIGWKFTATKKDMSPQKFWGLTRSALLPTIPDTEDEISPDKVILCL
T1 sequence (Q16531 whole entry partner): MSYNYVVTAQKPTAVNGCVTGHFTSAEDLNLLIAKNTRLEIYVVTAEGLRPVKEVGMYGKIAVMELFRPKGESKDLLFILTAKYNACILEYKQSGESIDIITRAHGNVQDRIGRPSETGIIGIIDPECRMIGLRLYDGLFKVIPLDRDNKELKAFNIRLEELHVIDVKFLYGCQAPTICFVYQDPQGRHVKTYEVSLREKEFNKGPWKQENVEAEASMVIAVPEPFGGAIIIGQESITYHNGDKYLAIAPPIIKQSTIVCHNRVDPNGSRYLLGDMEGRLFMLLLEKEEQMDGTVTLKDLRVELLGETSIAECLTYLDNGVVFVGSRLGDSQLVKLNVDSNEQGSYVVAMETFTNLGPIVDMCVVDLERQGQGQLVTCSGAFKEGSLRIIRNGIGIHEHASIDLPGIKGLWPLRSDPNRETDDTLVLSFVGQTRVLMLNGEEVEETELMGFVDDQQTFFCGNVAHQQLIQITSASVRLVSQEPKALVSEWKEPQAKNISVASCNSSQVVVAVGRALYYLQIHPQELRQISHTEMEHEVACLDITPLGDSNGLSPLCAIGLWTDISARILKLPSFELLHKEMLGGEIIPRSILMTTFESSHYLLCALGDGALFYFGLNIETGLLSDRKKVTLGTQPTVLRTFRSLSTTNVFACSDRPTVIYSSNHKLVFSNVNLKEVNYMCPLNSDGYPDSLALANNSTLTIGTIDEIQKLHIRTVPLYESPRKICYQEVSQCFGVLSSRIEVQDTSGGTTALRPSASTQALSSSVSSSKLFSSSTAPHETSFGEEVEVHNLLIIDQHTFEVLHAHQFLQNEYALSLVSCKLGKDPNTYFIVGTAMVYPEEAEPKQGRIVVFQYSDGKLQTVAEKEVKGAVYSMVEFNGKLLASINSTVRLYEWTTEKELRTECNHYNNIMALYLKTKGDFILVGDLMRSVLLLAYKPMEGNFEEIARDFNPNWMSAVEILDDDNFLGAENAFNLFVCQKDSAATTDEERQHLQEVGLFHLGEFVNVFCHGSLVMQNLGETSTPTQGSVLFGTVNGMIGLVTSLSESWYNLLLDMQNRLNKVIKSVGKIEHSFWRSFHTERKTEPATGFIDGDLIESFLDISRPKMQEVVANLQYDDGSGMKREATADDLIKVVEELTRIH
Procedure, shortened: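 HEK293A cells stably expressing bicistronic BTK-GFP-IRES-RFP (C-terminal GFP tag) via lentiviral vector. Degradation read by flow cytometry as loss of GFP signal after degrader treatment. DC50 is concentration giving 50% maximal degradation; Amax is % protein remaining at maximal degradation.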

OCI-LY3 cells = experiment: Resazurin cell viability (proliferation) assay in OCI-LY3 DLBCL cells; details: OCI-LY3 cells (BTK independent), 72 h, 50% growth inhibition vs vehicle, read-out: OCI-LY3 Prol GI50
Procedure, shortened: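 Cells were seeded at 1×10^4 per well and dosed 3 h later: 8-point 1:4 dilutions from 10 μM (OCI-LY3), in triplicate, 72 h at 37 °C. Resazurin (13 μg/ml final) was added for the last 2 h and fluorescence read at 530/600 nm. GI50 is relative to DMSO vehicle, typically from ≥2 independent experiments.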

SMILES	DC50 (BTK-GFP)	BTK deg Amax (BTK-GFP)	GI50 (OCI-LY3 cells; Homo sapiens)	GI50 (TMD8 cells; Homo sapiens)	GI50 (TMD8 cells)	GI50 (OCI-LY3 cells)
COc1ccc(C(=O)N2CCC3(CCN(Cc4ccc(-c5cc6c(-c7cc(F)cc(NC(=O)c8ccc(C(C)(C)O)cc8F)c7C)ncnc6[nH]5)cc4)C[C@@H]3CO)CC2)cc1N1CCC(=O)NC1=O (single isomer, unassigned) [Compound 24]	77.1 nM	10.8%	> 10000 nM	5.98 nM		
COc1ccc(C(=O)N2CCN(CCNCCCCOc3ccc(-c4cc5c(-c6cc(F)cc(NC(=O)c7ccc(C(C)(C)O)cc7F)c6C)ncnc5[nH]4)cc3)CC2)cc1N1CCC(=O)NC1=O [Compound 36, N-(3-(6-(4-(4-((2-(4-(3-(2,4-dioxotetrahydropyrimidin-1(2H)-yl)-4-methoxybenzoyl)piperazin-1-yl)ethyl)amino)butoxyl)phenyl)-7H-pyrrolo[2,3-d]pyrimidin-4-yl)-5-fluoro-2-methylphenyl)-2-fluoro-4-(2-hydroxypropan-2-yl)benzamide]	37 nM	2.4%	> 10000 nM	2.94 nM		
Cc1c(NC(=O)c2ccc(C(C)(C)O)cc2F)cc(F)cc1-c1ncnc2[nH]c(-c3ccc(CN4CCC5(CC4)CN(CCNC(=O)c4ccc(Cl)c(N6CCC(=O)NC6=O)c4)CCO5)cc3)cc12 [Compound 37, N-(3-(6-(4-((4-(2-(4-chloro-3-(2,4-dioxotetrahydropyrimidin-1(2H)-yl)benzamido)ethyl)-1-oxa-4,9-diazaspiro[5.5]undecan-9-yl)methyl)phenyl)-7H-pyrrolo[2,3-d]pyrimidin-4-yl)-5-fluoro-2-methylphenyl)-2-fluoro-4-(2-hydroxypropan-2-yl)benzamide]	11.3 nM	6.5%	4220 nM	1.93 nM		
COc1ccc(C(=O)N2CCN(CCNCCCOCc3ccc(-c4cc5c(-c6cc(F)cc(NC(=O)c7ccc(C(C)(C)O)cc7F)c6C)ncnc5[nH]4)cc3)CC2)cc1N1CCC(=O)NC1=O [Compound 45, N-(3-(6-(4-((3-((2-(4-(3-(2,4-dioxotetrahydropyrimidin-1(2H)-yl)-4-methoxybenzoyl)piperazin-1-yl)ethyl)amino)propoxy)methyl)phenyl)-7H-pyrrolo[2,3-d]pyrimidin-4-yl)-5-fluoro-2-methylphenyl)-2-fluoro-4-(2-hydroxypropan-2-yl)benzamide]	284 nM	3.2%	> 10000 nM	19.1 nM		
COc1ccc(C(=O)N2CCC(O[C@H]3CC[C@H](OCc4ccc(-c5cc6c(-c7cc(F)cc(NC(=O)c8ccc(C(C)(C)O)cc8F)c7C)ncnc6[nH]5)cc4)CC3)CC2)cc1N1CCC(=O)NC1=O [Compound 56, N-(3-(6-(4-((((1r,4r)-4-((1-(3-(2,4-dioxotetrahydropyrimidin-1(2H)-yl)-4-methoxybenzoyl)piperidin-4-yl)oxy)cyclohexyl)oxy)methyl)phenyl)-7H-pyrrolo[2,3-d]pyrimidin-4-yl)-5-fluoro-2-methylphenyl)-2-fluoro-4-(2-hydroxypropan-2-yl)benzamide]	4 nM	4.4%			15.4 nM	6340 nM
COc1ccc(C(=O)N2CCN(CCN3CCN(Cc4ccc(-c5cc6c(-c7cc(F)cc(NC(=O)c8ccc(C(C)(C)O)cc8F)c7C)ncnc6[nH]5)cc4)CC3)CC2)cc1N1CCC(=O)NC1=O [Compound 16, N-(3-(6-(4-((4-(2-(4-(3-(2,4-Dioxotetrahydropyrimidin-1(2H)-yl)-4-methoxybenzoyl)piperazin-1-yl)ethyl)piperazin-1-yl)methyl)phenyl)-7H-pyrrolo[2,3-d]pyrimidin-4-yl)-5-fluoro-2-methylphenyl)-2-fluoro-4-(2-hydroxypropan-2-yl)benzamide]	4.2 nM	4.1%	> 10000 nM	0.67 nM		
COc1ccc(C(=O)N2CCC(CCN3CCC(Oc4ccc(-c5cc6c(-c7cc(F)cc(NC(=O)c8ccc(C(C)(C)O)cc8F)c7C)ncnc6[nH]5)cc4)CC3)CC2)cc1N1CCC(=O)NC1=O [Compound 38, N-(3-(6-(4-((1-(2-(1-(3-(2,4-dioxotetrahydropyrimidin-1(2H)-yl)-4-methoxybenzoyl)piperidin-4-yl)ethyl)piperidin-4-yl)oxy)phenyl)-7H-pyrrolo[2,3-d]pyrimidin-4-yl)-5-fluoro-2-methylphenyl)-2-fluoro-4-(2-hydroxypropan-2-yl)benzamide]	0.9 nM	4.1%	4440 nM	0.51 nM		

Further lines, with some results ahead:

DC50 (BTK-GFP)	BTK deg Amax (BTK-GFP)	GI50 (OCI-LY3 cells; Homo sapiens)	SMILES	GI50 (TMD8 cells; Homo sapiens)	GI50 (TMD8 cells)	GI50 (OCI-LY3 cells)
10.8 nM	3.4%	4320 nM	COc1ccc(C(=O)N2CCC(OC(CO)CN3CCC(Oc4ccc(-c5cc6c(-c7cc(F)cc(NC(=O)c8ccc(C(C)(C)O)cc8F)c7C)ncnc6[nH]5)cc4)CC3)CC2)cc1N1CCC(=O)NC1=O (racemic) [Compound 18, rac-N-(3-(6-(4-((1-(2-((1-(3-(2,4-Dioxotetrahydropyrimidin-1(2H)-yl)-4-methoxybenzoyl)piperidin-4-yl)oxyl)-3-hydroxypropyl)piperidin-4-yl)oxyl)phenyl)-7H-pyrrolo[2,3-d]pyrimidin-4-yl)-5-fluoro-2-methylphenyl)-2-fluoro-4-(2-hydroxypropan-2-yl)benzamide]	1.58 nM		
5 nM	4.7%	> 10000 nM	COc1ccc(C(=O)N2CCC3(CCN(CCCc4ccc(-c5cc6c(-c7cc(F)cc(NC(=O)c8ccc(C(C)(C)O)cc8F)c7C)ncnc6[nH]5)cc4)CC3)CC2)cc1N1CCC(=O)NC1=O [Compound 11, N-(3-(6-(4-(3-(9(3-(2,4-Dioxotetrahydropyrimidin-1(2H)-yl)-4-methoxybenzoyl)-3,9-diazaspiro[5.5]undecan-3-yl)propyl)phenyl)-7H-pyrrolo[2,3-d]pyrimidin-4-yl)-5-fluoro-2-methylphenyl)-2-fluoro-4-(2-hydroxypropan-2-yl)benzamide]	0.84 nM		
38.5 nM	4.6%	> 10000 nM	COc1ccc(C(=O)N2CCC3(CCN(Cc4ccc(-c5cc6c(-c7cc(F)cc(NC(=O)c8ccc(C(C)(C)O)cc8F)c7C)ncnc6[nH]5)cc4)CC3)[C@@H](CO)C2)cc1N1CCC(=O)NC1=O (single isomer, unassigned) [Compound 2]	3.57 nM		
14.4 nM	8.9%	4400 nM	Cc1c(NC(=O)c2ccc(C(C)(C)O)cc2F)cc(F)cc1-c1ncnc2[nH]c(-c3ccc(CN4CCC5(CCN(CCCNC(=O)c6ccc(Cl)c(N7CCC(=O)NC7=O)c6)CC5)CC4)cc3)cc12 [Compound 57, N-(3-(6-(4-((9-(3-(4-chloro-3-(2,4-dioxotetrahydropyrimidin-1(2H)-yl)benzamido)propyl)-3,9-diazaspiro[5.5]undecan-3-yl)methyl)phenyl)-7H-pyrrolo[2,3-d]pyrimidin-4-yl)-5-fluoro-2-methylphenyl)-2-fluoro-4-(2-hydroxypropan-2-yl)benzamide]	1.16 nM		
70.3 nM	49.4%	4840 nM	COc1ccc(C(=O)N2CCC3(CCN(Cc4ccc(-c5cc6c(-c7cc(F)cc(NC(=O)c8ccc(C(C)(C)O)cc8F)c7C)ncnc6[nH]5)cc4)C3)CC2)cc1N1CCC(=O)NC1=O [Compound 49, N-(3-(6-(4-((8-(3-(2,4-dioxotetrahydropyrimidin-1(2H)-yl)-4-methoxybenzoyl)-2,8-diazaspiro[4.5]decan-2-yl)methyl)phenyl)-7H-pyrrolo[2,3-d]pyrimidin-4-yl)-5-fluoro-2-methylphenyl)-2-fluoro-4-(2-hydroxypropan-2-yl)benzamide]	5.35 nM		
61.1 nM	7.6%	9160 nM	COc1ccc(C(=O)NCCN2CCC3(CC2)CCN(Cc2ccc(-c4cc5c(-c6cc(F)cc(NC(=O)c7ccc(C(C)(C)O)cc7F)c6C)ncnc5[nH]4)cc2)C3)cc1N1CCC(=O)NC1=O [Compound 35, N-(3-(6-(4-((8-(2-(3-(2,4-Dioxotetrahydropyrimidin-1(2H)-yl)-4-methoxybenzamido)ethyl)-2,8-diazaspiro[4.5]decan-2-yl)methyl)phenyl)-7H-pyrrolo[2,3-d]pyrimidin-4-yl)-5-fluoro-2-methylphenyl)-2-fluoro-4-(2-hydroxypropan-2-yl)benzamide]	3.46 nM		
150 nM	17.4%	> 10000 nM	COc1ccc(C(=O)NCCN2CCC3(CCN(Cc4ccc(-c5cc6c(-c7cc(F)cc(NC(=O)c8ccc(C(C)(C)O)cc8F)c7C)ncnc6[nH]5)cc4)CC3)C2)cc1N1CCC(=O)NC1=O [Compound 53, N-(3-(6-(4-((2-(2-(3-(2,4-dioxotetrahydropyrimidin-1(2H)-yl)-4-methoxybenzamido)ethyl)-2,8-diazaspiro[4.5]decan-8-yl)methyl)phenyl)-7H-pyrrolo[2,3-d]pyrimidin-4-yl)-5-fluoro-2-methylphenyl)-2-fluoro-4-(2-hydroxypropan-2-yl)benzamide]	3.14 nM		
